The target of the assay is T1, C3b (Homo sapiens, UniProt P01024).
T1 construct: Biotinylated C3b was captured site-specifically on a streptavidin chip
The assay is described as follows: SPR kinetic analysis of binding to immobilized C3b (Biacore, single cycle kinetics). As to conditions: for Kd: read-out: KD: binding constant from SPR; for koff: read-out: kd: dissociation rate. The protocol: SPR analysis. The interaction of the compstatin analogs with C3b was characterized using a Biacore 3000 instrument (GE Healthcare, Corp., Piscataway, N.J.). The running buffer was PBS, pH 7.4 (10 mM sodium phosphate, 150 mM NaCl) with 0.005% Tween-20. Biotinylated C3b was captured site-specifically on a streptavidin chip at about 3000 and 5000 RU density; two untreated flow cells were used as reference surface. For kinetic analysis, sets of five increasing concentrations of a particular compound were injected over the chip surface one after the other in a single cycle. […] Processed biosensor data were globally fitted to a 1:1 Langmuir binding model (kindly provided by GE Helthcare), and the equilibrium dissociation constant (KD) was calculated from the equation KD=kd/ka. Each assay was performed at least twice.

SMILES strings stand for the structures. Read-outs that look alike come from different tables or passages of the source. Bridge positions count the residues as written; N and C are the ends. Square brackets hold non-standard residues; d marks the D form. Peptide text beside a SMILES is read from it. Trp(1-Me) = Cn1cc(C[C@H](N)C(=O)O)c2ccccc21; NMeI = CC[C@H](C)[C@H](NC)C(=O)O; Orn = NCCC[C@H](N)C(=O)O; Sar = CNCC(=O)O

15 molecules from US20210032291A1, “Compstatin Analogs With Improved Pharmacokinetic Properties” (The Trustees of the University of Pennsylvania, priority 2011, published 2021) can be followed below.

In general, Kd refers to the free concentration of one partner at which half of the binding sites on the other are occupied at equilibrium, for simple one-to-one binding.

T1 sequence (P01024 23-667 limits assumed): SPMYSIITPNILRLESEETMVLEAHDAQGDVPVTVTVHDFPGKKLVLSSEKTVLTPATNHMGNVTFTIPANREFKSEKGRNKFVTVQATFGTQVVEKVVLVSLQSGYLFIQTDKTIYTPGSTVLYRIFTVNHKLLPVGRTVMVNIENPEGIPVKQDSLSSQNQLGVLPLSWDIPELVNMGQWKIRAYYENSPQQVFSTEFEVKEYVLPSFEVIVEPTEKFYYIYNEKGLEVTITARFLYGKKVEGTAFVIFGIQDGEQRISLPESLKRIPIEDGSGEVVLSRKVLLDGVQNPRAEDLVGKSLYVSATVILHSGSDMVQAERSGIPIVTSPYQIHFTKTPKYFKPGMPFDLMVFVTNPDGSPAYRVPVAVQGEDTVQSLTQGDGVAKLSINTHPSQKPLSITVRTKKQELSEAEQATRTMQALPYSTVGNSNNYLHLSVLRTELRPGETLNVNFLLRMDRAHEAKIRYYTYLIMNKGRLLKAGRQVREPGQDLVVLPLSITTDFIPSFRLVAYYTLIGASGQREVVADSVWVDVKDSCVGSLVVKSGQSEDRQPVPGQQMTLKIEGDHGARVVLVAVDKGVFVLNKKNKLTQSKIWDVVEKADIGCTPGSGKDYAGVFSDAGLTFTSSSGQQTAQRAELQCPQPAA
T1 sequence (P01024 749-1663 partner limits assumed): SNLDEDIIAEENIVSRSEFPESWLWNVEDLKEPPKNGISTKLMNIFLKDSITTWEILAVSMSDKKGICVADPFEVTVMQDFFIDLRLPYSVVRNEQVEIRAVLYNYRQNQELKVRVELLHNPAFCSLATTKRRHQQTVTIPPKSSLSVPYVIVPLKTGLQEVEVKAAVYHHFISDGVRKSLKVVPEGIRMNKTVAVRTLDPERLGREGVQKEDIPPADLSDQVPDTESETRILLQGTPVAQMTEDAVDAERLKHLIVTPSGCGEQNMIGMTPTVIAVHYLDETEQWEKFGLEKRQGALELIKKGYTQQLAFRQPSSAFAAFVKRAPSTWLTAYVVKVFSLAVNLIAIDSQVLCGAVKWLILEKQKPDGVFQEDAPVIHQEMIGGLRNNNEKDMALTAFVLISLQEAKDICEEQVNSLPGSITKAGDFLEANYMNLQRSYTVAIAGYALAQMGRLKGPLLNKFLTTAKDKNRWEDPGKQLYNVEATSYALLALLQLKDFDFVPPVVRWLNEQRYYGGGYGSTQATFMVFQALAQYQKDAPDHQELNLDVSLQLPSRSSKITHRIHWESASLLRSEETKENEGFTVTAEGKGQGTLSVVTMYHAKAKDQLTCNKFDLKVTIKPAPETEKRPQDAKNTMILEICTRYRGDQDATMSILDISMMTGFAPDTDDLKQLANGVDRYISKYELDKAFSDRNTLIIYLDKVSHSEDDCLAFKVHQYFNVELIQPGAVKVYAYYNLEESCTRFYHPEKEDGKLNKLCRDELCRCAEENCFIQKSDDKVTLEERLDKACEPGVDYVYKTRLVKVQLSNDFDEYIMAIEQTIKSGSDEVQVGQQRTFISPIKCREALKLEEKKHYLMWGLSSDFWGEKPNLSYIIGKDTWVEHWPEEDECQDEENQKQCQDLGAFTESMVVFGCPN

Turning to `CC[C@H](C)[C@H](NC(=O)[C@H](N)Cc1ccc(O)cc1)C(=O)N[C@H]1CSSC[C@@H](C(=O)N(C)[C@H](C(N)=O)[C@@H](C)CC)NC(=O)[C@H](CCCNC(=N)N)NC(=O)[C@H](Cc2c[nH]cn2)NC(=O)[C@H](C)NC(=O)CN(C)C(=O)[C@H](Cc2c[nH]c3ccccc23)NC(=O)[C@H](CC(N)=O)NC(=O)[C@H](CCC(N)=O)NC(=O)[C@H](Cc2cn(C)c3ccccc23)NC(=O)[C@H](C(C)C)NC1=O` [Cp40 (6Asn)] (H-[dY]ICV[Trp(1-Me)]QNW[Sar]AHRC[NMeI]-NH2; disulfide 3-13), under “Table 2, Cp40-based analogs”, the “ka: association rate” value is 0.9 ± 0.1 10^6/Ms, the Kd came to 3 ± 0.4 nM and the koff is 0.0028 ± 0.0001 s⁻¹.

Take `CC[C@H](C)[C@H](NC(=O)[C@H](N)Cc1ccc(O)cc1)C(=O)N[C@H]1CSSC[C@@H](C(=O)N(C)[C@H](C(N)=O)[C@@H](C)CC)NC(=O)[C@H](CCCN)NC(=O)[C@H](Cc2c[nH]cn2)NC(=O)[C@H](C)NC(=O)CN(C)C(=O)[C@H](Cc2c[nH]c3ccccc23)NC(=O)[C@H](CC(N)=O)NC(=O)[C@H](CCC(N)=O)NC(=O)[C@H](Cc2cn(C)c3ccccc23)NC(=O)[C@H](C(C)C)NC1=O` [Cp40 (11Orn 6Asn)] (H-[dY]ICV[Trp(1-Me)]QNW[Sar]AH[Orn]C[NMeI]-NH2; disulfide 3-13): for the setting “Table 2, Cp40-based analogs”, the “ka: association rate” value is 2.0 ± 0.4 10^6/Ms, the Kd came to 1.5 ± 0.4 nM and the koff was determined as 0.0028 ± 0.0006 s⁻¹.

Regarding `CC[C@H](C)[C@H](NC(=O)[C@H](N)Cc1ccc(O)cc1)C(=O)N[C@H]1CSSC[C@@H](C(=O)N(C)[C@H](C(N)=O)[C@@H](C)CC)NC(=O)[C@H](CCCN)NC(=O)[C@H](Cc2c[nH]cn2)NC(=O)[C@H](C)NC(=O)CN(C)C(=O)[C@H](Cc2c[nH]c3ccccc23)NC(=O)[C@H](CC(=O)O)NC(=O)[C@H](CCC(N)=O)NC(=O)[C@H](Cc2cn(C)c3ccccc23)NC(=O)[C@H](C(C)C)NC1=O` [Cp40 (11Orn)] (H-[dY]ICV[Trp(1-Me)]QDW[Sar]AH[Orn]C[NMeI]-NH2; disulfide 3-13), for the setting “Table 2, Cp40-based analogs”, the “ka: association rate” value is reported as 2.5 ± 0.1 10^6/Ms, the Kd worked out at 0.8 ± 0.1 nM and the koff turned out to be 0.002 ± 0.0001 s⁻¹.

As to `CC[C@H](C)[C@H](NC(=O)[C@@H](N)Cc1ccccc1)C(=O)N[C@H]1CSSC[C@@H](C(=O)N(C)[C@H](C(N)=O)[C@@H](C)CC)NC(=O)[C@H](CCCNC(=N)N)NC(=O)[C@H](Cc2c[nH]cn2)NC(=O)[C@H](C)NC(=O)CN(C)C(=O)[C@H](Cc2c[nH]c3ccccc23)NC(=O)[C@H](CC(=O)O)NC(=O)[C@H](CCC(N)=O)NC(=O)[C@H](Cc2cn(C)c3ccccc23)NC(=O)[C@H](C(C)C)NC1=O` [compound 5] (H-FICV[Trp(1-Me)]QDW[Sar]AHRC[NMeI]-NH2; disulfide 3-13), where the note is “Table 1, N-terminal analogs”, the “ka: association rate” value is given as 2.1 ± 0.4 10^6/Ms, the Kd is 1.6 ± 0.2 nM and the koff came to 0.0033 ± 0.0003 s⁻¹.

On to `CC[C@H](C)[C@H](NC(=O)[C@@H](N)CCCNC(=N)N)C(=O)N[C@H]1CSSC[C@@H](C(=O)N(C)[C@H](C(N)=O)[C@@H](C)CC)NC(=O)[C@H](CCCNC(=N)N)NC(=O)[C@H](Cc2c[nH]cn2)NC(=O)[C@H](C)NC(=O)CN(C)C(=O)[C@H](Cc2c[nH]c3ccccc23)NC(=O)[C@H](CC(=O)O)NC(=O)[C@H](CCC(N)=O)NC(=O)[C@H](Cc2cn(C)c3ccccc23)NC(=O)[C@H](C(C)C)NC1=O` [compound 6] (H-RICV[Trp(1-Me)]QDW[Sar]AHRC[NMeI]-NH2; disulfide 3-13), for which, where the note is “Table 1, N-terminal analogs”, the “ka: association rate” value was 1.7 ± 0.2 10^6/Ms, the Kd amounted to 1.7 ± 0.2 nM and the koff stood at 0.0029 ± 0.0002 s⁻¹.

For the molecule `CC[C@H](C)[C@H](NC(=O)[C@@H](N)Cc1c[nH]c2ccccc12)C(=O)N[C@H]1CSSC[C@@H](C(=O)N(C)[C@H](C(N)=O)[C@@H](C)CC)NC(=O)[C@H](CCCNC(=N)N)NC(=O)[C@H](Cc2c[nH]cn2)NC(=O)[C@H](C)NC(=O)CN(C)C(=O)[C@H](Cc2c[nH]c3ccccc23)NC(=O)[C@H](CC(=O)O)NC(=O)[C@H](CCC(N)=O)NC(=O)[C@H](Cc2cn(C)c3ccccc23)NC(=O)[C@H](C(C)C)NC1=O` [compound 7] (H-WICV[Trp(1-Me)]QDW[Sar]AHRC[NMeI]-NH2; disulfide 3-13), where the note is “Table 1, N-terminal analogs”, the “ka: association rate” value is given as 1.6 ± 0.1 10^6/Ms and the Kd came out at 2.2 ± 0.2 nM.

As to `CC[C@H](C)[C@H](NC(=O)[C@@H](N)[C@@H](C)O)C(=O)N[C@H]1CSSC[C@@H](C(=O)N(C)[C@H](C(N)=O)[C@@H](C)CC)NC(=O)[C@H](CCCNC(=N)N)NC(=O)[C@H](Cc2c[nH]cn2)NC(=O)[C@H](C)NC(=O)CN(C)C(=O)[C@H](Cc2c[nH]c3ccccc23)NC(=O)[C@H](CC(=O)O)NC(=O)[C@H](CCC(N)=O)NC(=O)[C@H](Cc2cn(C)c3ccccc23)NC(=O)[C@H](C(C)C)NC1=O` [compound 8] (H-TICV[Trp(1-Me)]QDW[Sar]AHRC[NMeI]-NH2; disulfide 3-13), for the setting “Table 1, N-terminal analogs”, the “ka: association rate” value is 1.2 ± 0.1 10^6/Ms, the Kd was determined as 2.6 ± 0.3 nM and the koff is 0.0031 ± 0.0002 s⁻¹.

For the molecule `CC[C@H](C)[C@H](NC(=O)[C@@H](N)Cc1ccc(OC)cc1)C(=O)N[C@H]1CSSC[C@@H](C(=O)N(C)[C@H](C(N)=O)[C@@H](C)CC)NC(=O)[C@H](CCCNC(=N)N)NC(=O)[C@H](Cc2c[nH]cn2)NC(=O)[C@H](C)NC(=O)CN(C)C(=O)[C@H](Cc2c[nH]c3ccccc23)NC(=O)[C@H](CC(=O)O)NC(=O)[C@H](CCC(N)=O)NC(=O)[C@H](Cc2cn(C)c3ccccc23)NC(=O)[C@H](C(C)C)NC1=O` [compound 9], the “ka: association rate” value (Table 1, N-terminal analogs) was 2.3 ± 0.4 10^6/Ms.

With `CC[C@H](C)[C@H](NC(=O)[C@H](Cc1ccccc1)NC)C(=O)N[C@H]1CSSC[C@@H](C(=O)N(C)[C@H](C(N)=O)[C@@H](C)CC)NC(=O)[C@H](CCCNC(=N)N)NC(=O)[C@H](Cc2c[nH]cn2)NC(=O)[C@H](C)NC(=O)CN(C)C(=O)[C@H](Cc2c[nH]c3ccccc23)NC(=O)[C@H](CC(=O)O)NC(=O)[C@H](CCC(N)=O)NC(=O)[C@H](Cc2cn(C)c3ccccc23)NC(=O)[C@H](C(C)C)NC1=O` [compound 10], under “Table 1, N-terminal analogs”, the “ka: association rate” value was 1.6 ± 0.2 10^6/Ms, the Kd stood at 1.8 ± 0.3 nM and the koff worked out at 0.0029 ± 0.0003 s⁻¹.

As for `CC[C@H](C)[C@H](NC(=O)[C@@H](NC)C(C)C)C(=O)N[C@H]1CSSC[C@@H](C(=O)N(C)[C@H](C(N)=O)[C@@H](C)CC)NC(=O)[C@H](CCCNC(=N)N)NC(=O)[C@H](Cc2c[nH]cn2)NC(=O)[C@H](C)NC(=O)CN(C)C(=O)[C@H](Cc2c[nH]c3ccccc23)NC(=O)[C@H](CC(=O)O)NC(=O)[C@H](CCC(N)=O)NC(=O)[C@H](Cc2cn(C)c3ccccc23)NC(=O)[C@H](C(C)C)NC1=O` [compound 11], under “Table 1, N-terminal analogs”, the “ka: association rate” value is given as 1.8 ± 0.3 10^6/Ms, the Kd amounted to 1.9 ± 0.1 nM and the koff was found to be 0.0035 ± 0.0006 s⁻¹.

Turning to `CC[C@H](C)[C@H](NC)C(=O)N[C@H](C(=O)N[C@H]1CSSC[C@@H](C(=O)N(C)[C@H](C(N)=O)[C@@H](C)CC)NC(=O)[C@H](CCCNC(=N)N)NC(=O)[C@H](Cc2c[nH]cn2)NC(=O)[C@H](C)NC(=O)CN(C)C(=O)[C@H](Cc2c[nH]c3ccccc23)NC(=O)[C@H](CC(=O)O)NC(=O)[C@H](CCC(N)=O)NC(=O)[C@H](Cc2cn(C)c3ccccc23)NC(=O)[C@H](C(C)C)NC1=O)[C@@H](C)CC` [compound 12], under “Table 1, N-terminal analogs”, the “ka: association rate” value is recorded as 1.6 ± 0.2 10^6/Ms, the Kd came out at 2.4 ± 0.5 nM and the koff stood at 0.0037 ± 0.0003 s⁻¹.

With `CC[C@H](C)[C@H](NC(=O)[C@H](C)NC)C(=O)N[C@H]1CSSC[C@@H](C(=O)N(C)[C@H](C(N)=O)[C@@H](C)CC)NC(=O)[C@H](CCCNC(=N)N)NC(=O)[C@H](Cc2c[nH]cn2)NC(=O)[C@H](C)NC(=O)CN(C)C(=O)[C@H](Cc2c[nH]c3ccccc23)NC(=O)[C@H](CC(=O)O)NC(=O)[C@H](CCC(N)=O)NC(=O)[C@H](Cc2cn(C)c3ccccc23)NC(=O)[C@H](C(C)C)NC1=O` [compound 13], under “Table 1, N-terminal analogs”, the “ka: association rate” value is 1.4 ± 0.2 10^6/Ms, the Kd stood at 2.5 ± 0.6 nM and the koff was found to be 0.0034 ± 0.0003 s⁻¹.

Consider `CC[C@H](C)[C@H](NC(=O)[C@H](N)Cc1ccccc1)C(=O)N[C@H]1CSSC[C@@H](C(=O)N(C)[C@H](C(N)=O)[C@@H](C)CC)NC(=O)[C@H](CCCNC(=N)N)NC(=O)[C@H](Cc2c[nH]cn2)NC(=O)[C@H](C)NC(=O)CN(C)C(=O)[C@H](Cc2c[nH]c3ccccc23)NC(=O)[C@H](CC(=O)O)NC(=O)[C@H](CCC(N)=O)NC(=O)[C@H](Cc2cn(C)c3ccccc23)NC(=O)[C@H](C(C)C)NC1=O` [compound 15], for which, for the setting “Table 1, N-terminal analogs”, the “ka: association rate” value was 2.3 ± 0.3 10^6/Ms, the Kd was 1.1 ± 0.1 nM and the koff is 0.0026 s⁻¹.

On to `CC[C@H](C)[C@H](NC(=O)[C@H](N)Cc1c[nH]c2ccccc12)C(=O)N[C@H]1CSSC[C@@H](C(=O)N(C)[C@H](C(N)=O)[C@@H](C)CC)NC(=O)[C@H](CCCNC(=N)N)NC(=O)[C@H](Cc2c[nH]cn2)NC(=O)[C@H](C)NC(=O)CN(C)C(=O)[C@H](Cc2c[nH]c3ccccc23)NC(=O)[C@H](CC(=O)O)NC(=O)[C@H](CCC(N)=O)NC(=O)[C@H](Cc2cn(C)c3ccccc23)NC(=O)[C@H](C(C)C)NC1=O` [compound 16], for which the “ka: association rate” value (Table 1, N-terminal analogs) was 2.0 ± 0.2 10^6/Ms.

For the molecule `CC[C@H](C)[C@H](NC(=O)[C@H](N)CC1CCCCC1)C(=O)N[C@H]1CSSC[C@@H](C(=O)N(C)[C@H](C(N)=O)[C@@H](C)CC)NC(=O)[C@H](CCCNC(=N)N)NC(=O)[C@H](Cc2c[nH]cn2)NC(=O)[C@H](C)NC(=O)CN(C)C(=O)[C@H](Cc2c[nH]c3ccccc23)NC(=O)[C@H](CC(=O)O)NC(=O)[C@H](CCC(N)=O)NC(=O)[C@H](Cc2cn(C)c3ccccc23)NC(=O)[C@H](C(C)C)NC1=O` [compound 17], for the setting “Table 1, N-terminal analogs”, the “ka: association rate” value is 1.8 ± 0.5 10^6/Ms, the Kd is 1.5 ± 0.2 nM and the koff was found to be 0.0027 ± 0.0004 s⁻¹.
